Test results from patent US20250179047A1, “5-[7-(3,4-DIHYDRO-1H-ISOQUINOLINE-2-CARBONYL)-1,2,3,4 TETRAHYDROISOQUINOLIN-6-YL]-1H-PYRROLE-3-CARBOXAMIDE DERIVATIVES, PHARMACEUTICAL COMPOSITIONS CONTAINING THEM AND THEIR USES AS PRO-APOPTOTIC AGENTS” (LES LABORATOIRES SERVIER, priority 2022, published 2025).

How the values were obtained:
KMS-12-PE Bcl-2 WT = assay: In vitro cytotoxicity CellTiter-Glo 48 h, KMS-12-PE Bcl-2 WT; assay type: cell-based; details: Homo sapiens, KMS-12-PE, C50 = concentration needed to reach 50% of the cellular viability
Summary of the method: (§1)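 Potency is expressed as C50, the compound concentration at which viability of engineered KMS-12-PE cells (Bcl-2 wild type or G101V) falls to 50%, determined from CellTiter-Glo luminescence after 48 h of treatment over 11 concentrations.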

BCL2 WT = BCL2 WT (Homo sapiens (Human), UniProt P10415); assay: TR-FRET competitive binding assay, BCL2 WT; details: Ki determined from IC50, read-out: TR_FRET EKI_Bcl2 WT
Summary of the method: (§2)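 Competitive TR-FRET displacement of fluorescein-PUMA peptide (2 or 20 nM) from 0.5 nM terbium-labelled N-terminal Halo-fusion BCL2 (1-207, wild type or mutant) or BCLXL (2-196), expressed in E. coli. Buffer 50 mM Hepes pH 7.5, 150 mM NaCl, 5% DMSO; 2 h at 23°C. 520/495 nm ratio fitted over 11 points for IC50, converted to Ki.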

BCL2 G101V [1] = molecular target: BCL2 G101V (Homo sapiens, UniProt P10415, G101V); assay: TR-FRET competitive binding assay, BCL2 G101V; details: BCL2 G101V; Ki determined from IC50; read-out: TR_FRET EKI_Bcl2 G101V
Summary of the method: as §2

BCL2 G101V [2] = assay: TR-FRET competitive binding assay, BCL2 G101V; design: species or system human; details: ratio Ki BCL2 G101V / Ki BCL2 WT
Summary of the method: as §2

BCLXL WT = BCLXL WT (Homo sapiens (Human), UniProt Q07817); assay: TR-FRET competitive binding assay, BCLXL WT; details: for Ki: BCLXL WT, Ki determined from IC50, read-out: TR_FRET EKI BclxL; for TR_FRET EKI BCLxL/WT selectivty ratio: ratio Ki BCLxL / Ki BCL2 WT
Summary of the method: as §2

BCL2 F104I = BCL2 F104I (Homo sapiens, UniProt P10415, F104I); assay: TR-FRET competitive binding assay, BCL2 F104I; details: Ki determined from IC50, read-out: TR_FRET EKI_Bcl2 F104I
Summary of the method: as §2

BCL2 D103Y = BCL2 D103Y (Homo sapiens, UniProt P10415, D103Y); assay: TR-FRET competitive binding assay, BCL2 D103Y; details: Ki determined from IC50, read-out: TR_FRET EKI_Bcl2 D103Y
Summary of the method: as §2

BCL2 D111A = BCL2 D111A (Homo sapiens, UniProt P10415, D111A); assay: TR-FRET competitive binding assay, BCL2 D111A; details: Ki determined from IC50, read-out: TR_FRET EKI_Bcl2 D111A
Description: The relative binding potency of each compound was determined in a competitive binding assay using time resolved-fluorescence resonance energy transfer (TR-FRET). The method utilised a fluorescein labelled peptide derived from PUMA (5Flu-Ahx-[…]-NH2 wherein Ahx means 6-hexanoic acid monomer and the amino acid sequence is referred to as SEQ ID:01) which binds to a terbium labelled BCL2 or BCLXL protein. The degree of binding or corresponding compound inhibition can be quantified by the TR-FRET signal between the terbium donor and fluorescein acceptor.
The human BCL2_wild-type (also named BCL2_wt), BCL2_G101V mutant and BCLXL_wild-type were E. coli expressed as a N-terminal Halo-fusion proteins and singly labelled with Terbium on the Halo protein to afford the following amino acid sequences:
wherein the BCL2(1-207) sequence corresponds to UniProtKB® primary accession number P10415 and the BCLXL(2-196) sequence corresponds to UniProtKB® primary accession number Q07817-1.
The assay was performed in a 40 μL volume in white 384-standard well plates (Corning #3574). An 11-point serial dilution of each compound was prepared in DMSO and transferred directly to plate followed by addition of fluorescein labelled peptide and lastly protein. Final assay conditions were 0.5 nM BCL2_wt, BCL2_G101V, BCL2_D103Y, BCL2_F104I, BCL2_D111A or BCLXL_wt, 2 or 20 nM fluorescein labelled peptide, 50 mM Hepes pH 7.5, 150 mM NaCl, 0.5 mM TCEP (Tris(2-carboxyethyl)phosphine), 0.05% Tween 20, 5% DMSO. The mixture was incubated for 2 hours at 23° C.
TR-FRET measurements were performed on a Biotek Synergy Neo plate reader. TR-FRET was measured by excitation of the Terbium-donor at 340 nm and subsequent (delay time 100 μs) measurement of terbium and fluorescein emission at 495 nm and 520 nm, respectively, over a collection time of 300 μs. The TR-FRET signal was calculated as the emission-ratio at 520 nm over 495 nm.
The TR-FRET ratio readout for test compounds was normalized against 0% inhibition controls wells and 100% inhibition control wells. Test compound potency (IC50) was estimated by nonlinear regression using the sigmoidal dose-response (variable slope) using Xlfit 4 (IDBS, Guildford, Surrey, UK, model 205). Were the IC50 could not be determined the % inhibition at the highest tested concentration is given.
y=(A+((B−A)/(1+((C/x)^D))))
where y is the normalized TR-TRET ratio measurement for a given concentration of test compound, x is the concentration of test compound, A is the estimated efficacy (% inhibition) at infinite compound dilution, and B is the maximal efficacy (% inhibition). C is the IC50 value and D is the Hill slope coefficient.
The K1 values were determined from the IC50 values according to Cer et al, Nucleic Acids Res, 2009, July 1; 37 (WebServer issue): W441-W445.

KMS-12-PE Bcl-2 G101V = assay: In vitro cytotoxicity CellTiter-Glo 48 h, KMS-12-PE Bcl-2 G101V; assay type: cell-based; details: for Ratio (G101V/WT): C50 KMS-12-PE Bcl-2 G101V over C50 KMS-12-PE Bcl-2 WT; for IC50: Homo sapiens, KMS-12-PE, 48 h, CellTiter-Glo, C50 = concentration needed to reach 50% of the cellular viability
Summary of the method: as §1

Sequence of BCLXL WT (Q07817 other isoform, or with tags, fused parts or gaps): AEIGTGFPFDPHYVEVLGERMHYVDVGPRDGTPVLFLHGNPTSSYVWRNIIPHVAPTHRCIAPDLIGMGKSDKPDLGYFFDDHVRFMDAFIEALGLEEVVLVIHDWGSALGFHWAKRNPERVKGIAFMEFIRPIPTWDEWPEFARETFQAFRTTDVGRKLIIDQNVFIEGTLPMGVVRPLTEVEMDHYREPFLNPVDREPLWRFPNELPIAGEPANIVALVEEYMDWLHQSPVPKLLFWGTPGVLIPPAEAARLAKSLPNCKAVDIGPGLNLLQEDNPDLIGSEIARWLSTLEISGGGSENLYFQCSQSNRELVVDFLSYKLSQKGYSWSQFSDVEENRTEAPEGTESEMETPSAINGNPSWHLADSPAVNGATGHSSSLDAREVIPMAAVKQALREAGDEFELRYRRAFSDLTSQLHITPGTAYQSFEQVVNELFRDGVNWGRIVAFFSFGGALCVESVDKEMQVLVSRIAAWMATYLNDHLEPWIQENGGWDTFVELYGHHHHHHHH

SMILES	IC50 (KMS-12-PE Bcl-2 WT) [µM]	Ki (BCL2 WT) [nM]	Ki (BCL2 G101V [1]) [nM]	TR_FRET EKI G101V/WT selectivty ratio (BCL2 G101V [2])	Ki (BCLXL WT) [nM]	TR_FRET EKI BCLxL/WT selectivty ratio (BCLXL WT)	Ki (BCL2 F104I) [nM]	Ki (BCL2 D103Y) [nM]	Ki (BCL2 D111A) [nM]	Ratio (G101V/WT) (KMS-12-PE Bcl-2 G101V)	IC50 (KMS-12-PE Bcl-2 G101V) [µM]
Cc1c(N(C(=O)c2cc(-c3cc4c(cc3C(=O)N3Cc5ccccc5C[C@H]3C)CN(C(=O)Cc3ccc(OCCN5CCN(CC(F)F)CC5)cc3)CC4)n(C)c2C)c2ccc(O)cc2)cc(C#N)n1C [Example 47, N-(5-cyano-1,2-dimethyl-1H-pyrrol-3-yl)-5-{2-[2-(4-{2-[4-(2,2-difluoroethyl)piperazin-1-yl]ethoxy}phenyl)acetyl]-7-[(3R)-3-methyl-1,2,3,4-tetrahydroisoquinoline-2-carbonyl]-1,2,3,4-tetrahydroisoquinolin-6-yl}-N-(4-hydroxyphenyl)-1,2-dimethyl-1H-pyrrole-3-carboxamide]	0.008	0.11	0.2	2.0	2	18.9	0.46	0.24	0.16	4.5	0.0362
Cc1c(N(C(=O)c2cc(-c3cc4c(cc3C(=O)N3Cc5ccccc5C[C@H]3C)CN(C(=O)Cc3ccc(C5CCN(CC(F)F)CC5)cc3F)CC4)n(C)c2C)c2ccc(O)cc2)cc(C#N)n1C [Example 48, N-(5-cyano-1,2-dimethylpyrrol-3-yl)-5-[2-(2-{4-[1-(2,2-difluoroethyl)piperidin-4-yl]-2-fluorophenyl}acetyl)-7-{[(3R)-3-methyl-3,4-dihydro-1H-isoquinolin-2-yl]carbonyl}-3,4-dihydro-1H-isoquinolin-6-yl]-N-(4-hydroxyphenyl)-1,2-dimethylpyrrole-3-carboxamide]	0.0048	0.5	1.3	2.6	9.4	18.8	10.2	0.79	1.63	6.44	0.0268
Cc1c(N(C(=O)c2cc(-c3cc4c(cc3C(=O)N3Cc5ccccc5C[C@H]3C)CN(C(=O)Cc3ccc(OCCN5CCC(F)(F)C5)cc3)CC4)n(C)c2C)c2ccc(O)cc2)cc(C#N)n1C [Example 50, N-(5-cyano-1,2-dimethyl-1H-pyrrol-3-yl)-5-[2-(2-{4-[2-(3,3-difluoropyrrolidin-1-yl)ethoxy]phenyl}acetyl)-7-[(3R)-3-methyl-1,2,3,4-tetrahydroisoquinoline-2-carbonyl]-1,2,3,4-tetrahydroisoquinolin-6-yl]-N-(4-hydroxyphenyl)-1,2-dimethyl-1H-pyrrole-3-carboxamide]	0.0052	0.26	0.6	2.3	5.8	22.3	4.66	0.58	1.46	6.53	0.0341
Cc1c(N(C(=O)c2cc(-c3cc4c(cc3C(=O)N3Cc5ccccc5C[C@H]3C)CN(C(=O)Cc3ccc(OCCN5CCO[C@@H](C)C5)cc3)CC4)n(C)c2C)c2ccc(O)cc2)cc(C#N)n1C [Example 57, N-(5-cyano-1,2-dimethyl-1H-pyrrol-3-yl)-N-(4-hydroxyphenyl)-1,2-dimethyl-5-{7-[(3R)-3-methyl-1,2,3,4-tetrahydroisoquinoline-2-carbonyl]-2-(2-{4-[2-((2S)-2-methylmorpholin-4-yl)ethoxy]phenyl}acetyl)-1,2,3,4-tetrahydroisoquinolin-6-yl}-1H-pyrrole-3-carboxamide]	0.0048	0.05	0.2	4.1	1.7	34.7	0.47	0.15	0.21	4.32	0.0208
